Here are results for 13 compounds from publication PMC4586009, “Phytochemical composition, antiparasitic and α–glucosidase inhibition activities from Pelliciera rhizophorae” (Chemistry Central Journal, 2015).

Where two headings read alike, the source gives them in different places. A value given as a limit tells only on which side of the number the result lay.

One data set relates to L. donovani. The experiment in a line: In vitro antiparasitic assay against L. donovani amastigotes (PicoGreen). Format: cell-based. The following applies: Leishmania donovani, I = inactive at 10 µg/mL. The protocol:
Promastigotes cultures of L. donovani are maintained in continuous log phase growth in Liver Infusion Tryptose (LIT) Medium, pH 7.2, supplemented with 10 % Fetal Bovine Serum (FBS) at 28 °C. For promastigote transformation into amastigote forms, 1 mL of promastigotes log phase culture is transferred into 5 mL of Medium 199 Modified (SIGMA-Cat M3769) pH 5.5, supplemented with 0.1 g/L L-glutamine, 2.2 g/L sodium bicarbonate, 2 g Glucose, 5 mL penicillin–streptomycin and 20 % FBS and maintained at 35 °C until its use for bioassays.
(§1) Dry samples were diluted in 100 % DMSO (dimethylsulfoxide) to obtain a concentration of 4 mg/mL. Samples are used immediately in the bioassay and stored at −20 °C in the dark until results are obtained. All assays are performed in sterile 96-well microtitre culture plates (Costar Cat 3595). In a primary screening samples are tested in duplicate wells at a final concentration of 10 μg/mL. […] The IC50 is analyzed with the Excel Add-On software LSW Data Analysis Tool. The concentration that inhibited the growth of the parasites to 50 % (IC50) was calculated through the inhibition curve of the obtained optical density values, and compared to the untreated controls.
(§2) L. donovani and P. falciparum A […] is used to determine the amount of parasites in culture. After 48 and 72 h incubation, respectively, 1 % PicoGreen® solution is added to all wells in the dark. After shaking, the plate is taken into a microplate reader employing 485/20 nm excitation and 528/20 nm emission filter sets.

For data set [1], the system named is P. falciparum. The following applies: read-out: IC50 of positive control for P. falciparum; positive control range; cited from earlier work.
Data set [2] has as its system P. falciparum. The experiment in a line: In vitro antiplasmodial assay, chloroquine-resistant strain Indochina W2 (PicoGreen). The data set is classed as cell-based. The note with it: Plasmodium falciparum, I = inactive at 10 µg/mL, read-out: Antiparasitic activity IC50, P. falciparum. The procedure: The cultures are kept in synchrony by thermal cycling incubation and are maintained in continuous log phase growth in RPM-I1640 medium (SIGMA) supplemented with 2 % washed human O Rh positive (+) erythrocytes, 25 mM HEPES, […] NaHCO3, and 10 % Human Serum from an O Rh+ donor. All cultures and assays are conducted at 37 °C under an atmosphere of 5 % CO2 and 5 % O2, with a balance of N2 (90 %).
as §1, §2

The test system of data set [3] is T. cruzi. The experiment in a line: In vitro T. cruzi growth inhibition, Tulahuen clone C4 expressing β-galactosidase, in Vero cells. Format: cell-based. The note with it: Trypanosoma cruzi, strain Tulahuen, I = inactive at 10 µg/mL, read-out: Antiparasitic activity IC50, T. cruzi. The protocol: T. cruzi (Tulahuen) C4 strain lactosidase (Lac Z) gene. The strain is maintained on VERO Cells (African Green Monkey cell line obtained from ATCC on 2006), grown in monolayers in RPM-I1640 medium, supplemented with 10 % heat inactivated FBS. All cultures and assays are conducted at 37 °C under an atmosphere of 5 % CO2/95 % air mixture.
as §1
T. cruzi In this assay, a colorimetric method is used to determine the inhibition of parasite growth as detected by reduction of β-galactosidase (β-Gal) as a reporter gene, expressed by the Tulahuen clone C4 of T. cruzi. Assays are performed on […], the intracellular form of the parasite infecting African green monkey kidney (VERO) cells, exposed during 120 h to different concentrations (50, 10 and 2 µg/mL) of the test substance. The resulting colour from the cleavage of chlorophenol red-β-D-galactoside (CPRG) by β-Gal expressed by the parasite, was measured using a Benchmark Bio-Rad microplate reader at 570 nm.

The nature of data set [4]: Cytotoxicity bioassay (MTT). The data set is classed as cell-based. The following applies: African green monkey, five days, I = inactive at 10 µg/mL. The protocol:
Vero cells were seeded in 96-well plates in RPM-I1640 medium supplemented with 10 % FBS and 1 % penicillin/streptomycin. The cells were allowed to grow for 24 h before adding the test compounds, dissolved in DMSO, to final concentrations of 10, 4, 0.2 and 0.08 µg/mL. A sample with only a volume of DMSO similar to the added volume in the compounds samples was placed as a negative control in all plates. All samples were incubated for five days before staining and examining for reduction of 3-(4,5-dimethylthiazol-2-yl)-2,5-diphenyltetrazolium bromide (MTT) and analyzed 4 h later in a color plate reader at 570 nm.

Data set [5] has as its target α-glucosidase from baker's yeast. The experiment in a line: α-Glucosidase inhibitory assay (PNP-G substrate) and kinetic analysis. Format: biochemical, S. cerevisiae. The procedure:
Lineweaver–Burk plots were constructed using different concentrations of substrate and triterpenes 1–5.
The α-glucosidase inhibitory assay was performed according to Chan and collaborators (2010), with modifications. α-glucosidase from baker’s yeast purchased from Sigma Chemical Co. The inhibition was measured spectrophotometrically at pH 7.0 and 37 °C employing 2 mM p-nitrophenyl α-D-glucopyranoside (PNP-G) as a substrate and 32 mU/mL of enzyme, in 100 mM potassium phosphate buffer (enzyme stock). […] The absorbance (A) of 4-nitrophenol released by the hydrolysis of PNP-G was measured at 400 nm by Synergy HT Bio Tek microplate spectrophotometer. […] After incubating, 150µL of substrate was added and further incubated for 20 min at 37 °C. All assays are performed in 96-well microplates (Greiner bio-one 655101) in duplicate. The activity of samples was calculated as a percentage in comparison to a control (DMSO or MeOH instead of sample solution) according with the following equation:
%Inhibition=(ΔAcontrol-ΔAsample)/ΔAcontrol×100%
The concentration required to inhibit activity of the enzyme by 50 % (IC50) was calculated by regression analysis.

Data set [6] has as its system T. cruzi. The following applies: read-out: IC50 of positive control for T. cruzi; positive control range; cited from earlier work.
Setting [7] is: pH 7.0, 37 °C, 2 mM PNP-G, read-out: α-glucosidase inhibition IC50.
Where [8] appears, read: α-glucosidase IC50 in Table 2, read-out: IC50.
The mark [9] stands for this setting: read-out: IC50, Vero cells (cytotoxicity).

Compound `C[C@@H]1[C@H](O)[C@@H](C)/C=C/C=C/C=C/C=C/C=C/C=C/C=C/[C@H](O[C@@H]2O[C@H](C)[C@@H](O)[C@H](N)[C@@H]2O)C[C@@H]2O[C@](O)(C[C@@H](O)C[C@@H](O)[C@H](O)CC[C@@H](O)C[C@@H](O)CC(=O)O[C@H]1C)C[C@H](O)[C@H]2C(=O)O` [Anfotericine B, Amphotericin B, reference compound] came in with an IC50 in the data set on L. donovani of 1 ± 0.12 µM.
Regarding `CCN(CC)CCCC(C)Nc1ccnc2cc(Cl)ccc12` (centres unmarked) [Chloroquine], in the data set on P. falciparum [1], the IC50 is 0.08 to 0.1 µM.
On to `C[C@H]1[C@H](C)CC[C@]2(C)CC[C@]3(C)C(=CC[C@@H]4[C@@]5(C)CC[C@H](O)C(C)(C)[C@@H]5CC[C@]43C)[C@H]12` [Compound 1, α-amyrine], for which the IC50 with L. donovani was over 10 µg/mL; in the data set on P. falciparum [2] it was over 10 µg/mL; in the data set on T. cruzi [3], 19 ± 0.6 µM; in data set [5] (setting [7]), 1.45 µM; in data set [5] (setting [8]) it was 1.45 µM. This compound also showed an IC50 at 5 days in data set [4] (Vero cells) of over 10 µg/mL.
Turning to `CC1(C)CC[C@]2(C)CC[C@]3(C)C(=CC[C@@H]4[C@@]5(C)CC[C@H](O)C(C)(C)[C@@H]5CC[C@]43C)[C@@H]2C1` [Compound 2, β-amyrine], the half-maximal inhibitory concentration (IC50) was over 10 µg/mL in the data set on L. donovani; over 10 µg/mL with P. falciparum [2]; over 10 µg/mL in the data set on T. cruzi [3]; 0.02 µM in data set [5] (setting [7]); 0.02 µM in data set [5] (setting [8]). For the same compound, the IC50 at 5 days in data set [4] (setting [9]) was over 10 µg/mL.
As for `C[C@H]1[C@H](C)CC[C@]2(C(=O)O)CC[C@]3(C)C(=CC[C@@H]4[C@@]5(C)CC[C@H](O)C(C)(C)[C@@H]5CC[C@]43C)[C@H]12` [Compound 3, ursolic acid], the IC50 with L. donovani was 2.4 ± 0.1 µM; with P. falciparum [2], 21.9 ± 0.6 µM; in the data set with T. cruzi [3] it was over 10 µg/mL; in data set [5] (setting [7]) it was 1.08 µM; in data set [5] (setting [8]), 1.08 µM. In data set [4] (Vero cells), this compound yielded an IC50 at 5 days of 64.8 ± 0.3 µM.
As for `CC1(C)CC[C@]2(C(=O)O)CC[C@]3(C)C(=CC[C@@H]4[C@@]5(C)CC[C@H](O)C(C)(C)[C@@H]5CC[C@]43C)[C@@H]2C1` [Compound 4, oleanolic acid], the IC50 is 5.3 ± 0.2 µM with L. donovani; over 10 µg/mL with P. falciparum [2]; over 10 µg/mL with T. cruzi [3]; 0.98 µM in data set [5] (setting [7]); 0.98 µM in data set [5] (setting [8]). In data set [4] (Vero cells), this compound came in with an IC50 at 5 days of 140.8 ± 0.5 µM.
With `C=C(C)[C@@H]1CC[C@]2(C(=O)O)CC[C@]3(C)[C@H](CC[C@@H]4[C@@]5(C)CC[C@H](O)C(C)(C)[C@@H]5CC[C@]43C)[C@@H]12` [Compound 5, betulinic acid], the IC50 in the data set with L. donovani was over 10 µg/mL; in the data set on P. falciparum [2], 18 ± 0.4 µM; with T. cruzi [3] it was over 10 µg/mL; in data set [5] (setting [7]), 2.37 µM; in data set [5] (setting [8]), 2.37 µM. The IC50 at 5 days in data set [4] (setting [9]) amounted to 131.1 ± 0.3 µM.
Consider `[O-][S@+]1C[C@H](O)CS1` [Compound 6, brugierol], for which the IC50 in the data set with L. donovani, in the data set with P. falciparum [2] and in the data set with T. cruzi [3] was over 10 µg/mL throughout. In addition, the IC50 at 5 days in data set [4] (Vero cells) was over 10 µg/mL. In addition, the “α-glucosidase inhibition IC50” value in data set [5] (pH 7.0, 37 °C, 2 mM PNP-G) was “inactive”.
In turn, `[O-][S@@+]1C[C@H](O)CS1` [Compound 7, iso-brugierol] registered a melting point of 82 to 83 °C. Also, in the data set on L. donovani, the IC50 was over 10 µg/mL. Also, in the data set on P. falciparum [2], the IC50 is over 10 µg/mL. In the data set on T. cruzi [3], the IC50 is over 10 µg/mL. In data set [4] (Vero cells), the IC50 at 5 days is over 10 µg/mL. In addition, the “α-glucosidase inhibition IC50” value in data set [5] (pH 7.0, 37 °C, 2 mM PNP-G) was “inactive”.
`O=c1c(O)c(-c2ccc(O)cc2)oc2cc(O)cc(O)c12` [Compound 8, kaempferol]: the IC50 in the data set on L. donovani was 22.9 ± 0.2 µM; in the data set on P. falciparum [2], over 10 µg/mL; in the data set with T. cruzi [3], over 10 µg/mL; in data set [5] (setting [7]) it was 262 µM. Also, half-maximal inhibition in data set [4] (Vero cells) (IC50 at 5 days) required 154.9 ± 0.6 µM.
For the compound `O=c1c(O)c(-c2ccc(O)c(O)c2)oc2cc(O)cc(O)c12` [Compound 9, quercetin], the IC50 in the data set with L. donovani is 12.6 ± 0.2 µM; in the data set with P. falciparum [2] it was 9.7 ± 0.3 µM; in the data set with T. cruzi [3], 13 ± 0.4 µM; in data set [5] (setting [7]), 29.8 µM. The same compound displayed an IC50 at 5 days in data set [4] (Vero cells) of over 10 µg/mL.
`CC1CS(=O)(=O)CCN1/N=C/c1ccc([N+](=O)[O-])o1` (centres unmarked) [Nifurtimox, reference compound]: the IC50 was 1.6 ± 0.11 µM in the data set on T. cruzi [3] and 0.15 to 13.4 µM with T. cruzi [6].
In the case of `C[C@H]1O[C@H](O[C@H]2[C@H](O)[C@@H](O)[C@@H](O[C@H]3[C@H](O)[C@@H](O)C(O)O[C@@H]3CO)O[C@@H]2CO)[C@H](O)[C@@H](O)[C@@H]1N[C@H]1C=C(CO)[C@@H](O)[C@H](O)[C@H]1O` (some centres unmarked) [acarbose, reference compound], the “type of α-glucosidase inhibition (Lineweaver–Burk plots)” value in data set [5] (different concentrations of substrate and inhibitor) is “competitive inhibitor”.
